The values that follow come from ChEMBL document CHEMBL3045430, “Natural products-based insecticidal agents 11. Synthesis and insecticidal activity of novel 4α-arylsulfonyloxybenzyloxy-2β-chloropodophyllotoxin derivatives against Mythimna separata Walker in vivo” (2011).

The test system of assay [1] is Mythimna separata. The assay is described as follows: In vivo insecticidal activity against pre-third-instar larval stage of Mythimna separata (Oriental armyworm) in corn leaves assessed as induction of malformed moth with imperfect wings at 1 mg/ml treated for 3 secs before larval infestation on corn leaves measured after […] by leaf-dipping method. Format: functional, organism-based.

The test system of assay [2] is Mythimna separata. The assay is described as follows: In vivo insecticidal activity against pre-third-instar larval stage of Mythimna separata (Oriental armyworm) in corn leaves assessed as induction of malformed pupae at 1 mg/ml treated for 3 secs before larval infestation on corn leaves measured after […] by leaf-dipping method. Format: functional, organism-based.

Assay [3] has as its system Mythimna separata. The assay is described as follows: In vivo insecticidal activity against pre-third-instar larval stage of Mythimna separata (Oriental armyworm) in corn leaves assessed as corrected mortality rate at 1 mg/ml treated for 3 secs before larval infestation on corn leaves measured after 35 days by leaf-dipping method. The assay is classed as functional. The note with it: 840 h.

Assay [4] has as its system Mythimna separata. The assay can be described thus: In vivo insecticidal activity against pre-third-instar larval stage of Mythimna separata (Oriental armyworm) in corn leaves assessed as corrected mortality rate at 1 mg/ml treated for 3 secs before larval infestation on corn leaves measured after 20 days by leaf-dipping method. The assay is classed as functional. The note with it: 480 h.

Assay [5] concerns Mythimna separata. The assay is described as follows: In vivo insecticidal activity against pre-third-instar larval stage of Mythimna separata (Oriental armyworm) in corn leaves assessed as corrected mortality rate at 1 mg/ml treated for 3 secs before larval infestation on corn leaves measured after 10 days by leaf-dipping method. The assay is classed as functional. The settings on record: 240 h.

For assay [6], the system named is Mythimna separata. The assay can be described thus: In vivo insecticidal activity against pre-third-instar larval stage of Mythimna separata (Oriental armyworm) in corn leaves assessed as induction of slim and wrinkled larval bodies at 1 mg/ml treated for 3 secs before larval infestation on corn leaves measured after 48 hr by leaf-dipping method. The assay is classed as functional, organism-based.

Molecules are shown by their SMILES. The source made the active and inactive calls. The rule behind the calls is not given here.

`COc1cc([C@@H]2c3cc4c(cc3[C@H](OCc3ccccc3OS(=O)(=O)c3cccc([N+](=O)[O-])c3)[C@H]3COC(=O)[C@]23Cl)OCO4)cc(OC)c1OC`: the outcome in the assay on Mythimna separata [1] and with Mythimna separata [2] was Active. Further, the mortality at 1000 µg/mL turned out to be 36% with Mythimna separata [3], 34.6% in the assay on Mythimna separata [4] and 10.7% in the assay with Mythimna separata [5].
For the compound `COc1cc([C@@H]2c3cc4c(cc3[C@H](OCc3ccc(OS(=O)(=O)c5ccc(Cl)c([N+](=O)[O-])c5)cc3)[C@H]3COC(=O)[C@]23Cl)OCO4)cc(OC)c1OC`, the results for the mortality at 1000 µg/mL in the assay with Mythimna separata [3], in the assay on Mythimna separata [4] and in the assay with Mythimna separata [5] were 48%, 26.9% and 17.9%, respectively.
`COc1cc([C@@H]2c3cc4c(cc3[C@H](O)[C@H]3COC(=O)[C@H]23)OCO4)cc(OC)c1OC` [PODOFILOX]: the mortality at 1000 µg/mL is 40% in the assay with Mythimna separata [3], 23.1% in the assay with Mythimna separata [4] and 17.9% with Mythimna separata [5].
With `COc1ccc(S(=O)(=O)Oc2ccccc2CO[C@H]2c3cc4c(cc3[C@@H](c3cc(OC)c(OC)c(OC)c3)[C@@]3(Cl)C(=O)OC[C@H]23)OCO4)cc1`, in the assay with Mythimna separata [1], the result was Active. Besides, the mortality at 1000 µg/mL with Mythimna separata [3] came out at 48%; with Mythimna separata [4], 34.6%; in the assay with Mythimna separata [5] it was 17.9%.
For `COc1cc([C@@H]2c3cc4c(cc3[C@H](OCc3ccccc3)[C@H]3COC(=O)[C@]23Cl)OCO4)cc(OC)c1OC` [4ALPHA-BENZYLOXY-2-CHLOROPODOPHYLLOTOXIN], the mortality at 1000 µg/mL was 52% in the assay with Mythimna separata [3], 19.2% in the assay on Mythimna separata [4] and 10.7% in the assay with Mythimna separata [5].
In the case of `COc1cc([C@@H]2c3cc4c(cc3[C@H](O)[C@H]3COC(=O)[C@]23Cl)OCO4)cc(OC)c1OC` [2BETA-CHLOROPODOPHYLLOTOXIN], the mortality at 1000 µg/mL amounted to 36% in the assay on Mythimna separata [3], 15.4% with Mythimna separata [4] and 14.3% in the assay on Mythimna separata [5].
For `COc1cc([C@@H]2c3cc4c(cc3[C@H](OCc3ccccc3OS(=O)(=O)c3ccc(C)cc3)[C@H]3COC(=O)[C@]23Cl)OCO4)cc(OC)c1OC`, in that order: 52%, 34.6% and 21.4%.
In the case of `COc1cc([C@@H]2c3cc4c(cc3[C@H](OCc3ccc(OS(=O)(=O)c5ccc(C)cc5)cc3)[C@H]3COC(=O)[C@]23Cl)OCO4)cc(OC)c1OC`, in the assay on Mythimna separata [2], the outcome was Active. In addition, the mortality at 1000 µg/mL amounted to 40% in the assay with Mythimna separata [3], 38.5% in the assay with Mythimna separata [4] and 17.9% in the assay on Mythimna separata [5].
In the case of `COc1cc([C@@H]2c3cc4c(cc3[C@H](OCc3ccccc3OS(=O)(=O)c3ccc(Cl)c([N+](=O)[O-])c3)[C@H]3COC(=O)[C@]23Cl)OCO4)cc(OC)c1OC`, the outcome in the assay with Mythimna separata [2] and in the assay with Mythimna separata [6] was Active. The values for the mortality at 1000 µg/mL in the assay on Mythimna separata [3], in the assay with Mythimna separata [4] and in the assay with Mythimna separata [5] were 72%, 57.7% and 25%, respectively.
For `CCc1ccc(S(=O)(=O)Oc2ccc(CO[C@H]3c4cc5c(cc4[C@@H](c4cc(OC)c(OC)c(OC)c4)[C@@]4(Cl)C(=O)OC[C@H]34)OCO5)cc2)cc1`, in the assay on Mythimna separata [6], the outcome was Active. The values for the mortality at 1000 µg/mL in the assay with Mythimna separata [3], with Mythimna separata [4] and in the assay on Mythimna separata [5] were 56%, 38.5% and 14.3%, respectively.
For `CCc1ccc(S(=O)(=O)Oc2ccccc2CO[C@H]2c3cc4c(cc3[C@@H](c3cc(OC)c(OC)c(OC)c3)[C@@]3(Cl)C(=O)OC[C@H]23)OCO4)cc1`, in that order: “Active”, 68%, 57.7% and 35.7%.
As to `CC(=O)O[C@@H]1C[C@H](O)[C@@]23CO[C@@H](O)[C@]1(C)[C@@H]2C[C@@H](O)[C@]1(C)[C@@H]3C(=O)[C@H](OC(C)=O)[C@@]2(C)[C@H](c3ccoc3)C[C@H]3O[C@]321` [TOOSENDANIN], the mortality at 1000 µg/mL in the assay on Mythimna separata [3] was 48%; in the assay with Mythimna separata [4], 34.6%; in the assay on Mythimna separata [5], 17.9%.
On the same counts, the results for `COc1ccc(S(=O)(=O)Oc2ccc(CO[C@H]3c4cc5c(cc4[C@@H](c4cc(OC)c(OC)c(OC)c4)[C@@]4(Cl)C(=O)OC[C@H]34)OCO5)cc2)cc1` are 48%, 34.6% and 21.4%.
On the same counts, the results for `COc1cc([C@@H]2c3cc4c(cc3[C@H](OCc3ccc(OS(=O)(=O)c5ccc(Cl)cc5)cc3)[C@H]3COC(=O)[C@]23Cl)OCO4)cc(OC)c1OC` are 40%, 38.5% and 28.6%.
`COc1cc([C@@H]2c3cc4c(cc3[C@H](OCc3ccc(OS(=O)(=O)c5cccc([N+](=O)[O-])c5)cc3)[C@H]3COC(=O)[C@]23Cl)OCO4)cc(OC)c1OC`: the result in the assay with Mythimna separata [2] was Active. Further, the mortality at 1000 µg/mL is 52% in the assay on Mythimna separata [3], 38.5% in the assay with Mythimna separata [4] and 14.3% in the assay with Mythimna separata [5].
On to `COc1cc([C@@H]2c3cc4c(cc3[C@H](OCc3ccccc3OS(=O)(=O)c3ccccc3)[C@H]3COC(=O)[C@]23Cl)OCO4)cc(OC)c1OC`, for which the outcome with Mythimna separata [1] and in the assay on Mythimna separata [2] was Active. For the same compound, the mortality at 1000 µg/mL with Mythimna separata [3] was found to be 40%; with Mythimna separata [4], 26.9%; in the assay on Mythimna separata [5] it was 7.1%.
Turning to `COc1cc([C@@H]2c3cc4c(cc3[C@H](OCc3ccccc3OS(=O)(=O)c3ccc(Cl)cc3)[C@H]3COC(=O)[C@]23Cl)OCO4)cc(OC)c1OC`, the result in the assay with Mythimna separata [1] was Active. The mortality at 1000 µg/mL amounted to 48% in the assay on Mythimna separata [3], 34.6% in the assay with Mythimna separata [4] and 7.1% in the assay on Mythimna separata [5].
As for `COc1cc([C@@H]2c3cc4c(cc3[C@H](OCc3ccc(OS(=O)(=O)c5ccccc5)cc3)[C@H]3COC(=O)[C@]23Cl)OCO4)cc(OC)c1OC`, the result with Mythimna separata [2] was Active. Also, the mortality at 1000 µg/mL in the assay on Mythimna separata [3] was 36%; in the assay on Mythimna separata [4] it was 30.8%; in the assay on Mythimna separata [5], 14.3%.
